Earlier results in US6423719B1, “Method for treating benign prostate hyperplasia” (Upsher-Smith Laboratories, Inc., priority 1999, dated 2002).

Key:
[1] = for bioavailability / half life (plasma / elimination): in vivo
[2] = target: T1, 5α-reductase (Homo sapiens, UniProt P31213); settings: stable enzyme complex with 5α-reductase
T1 sequence (P31213 1-254): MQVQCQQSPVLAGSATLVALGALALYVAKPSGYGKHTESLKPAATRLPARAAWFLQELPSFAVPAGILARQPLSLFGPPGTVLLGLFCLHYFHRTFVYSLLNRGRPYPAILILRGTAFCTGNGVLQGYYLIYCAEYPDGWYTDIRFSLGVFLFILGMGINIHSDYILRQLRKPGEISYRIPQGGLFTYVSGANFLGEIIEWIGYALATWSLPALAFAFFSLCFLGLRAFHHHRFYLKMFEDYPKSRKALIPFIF

[3] = in vivo

Row | SMILES | bioavailability [1] | half life (plasma / elimination) [1] | other results
1 | O=C(NC1CCN(CCc2c[nH]c3ccccc23)CC1)c1ccccc1 [Indoramin] | less than 30% | about 5 hours | 
2 | CC(C)(C)NC(=O)[C@H]1CC[C@H]2[C@@H]3CC[C@H]4NC(=O)C=C[C@]4(C)[C@H]3CC[C@]12C [Finasteride, N-(2-methyl-2-propyl)3-oxo-4-aza-5α-androst-1-ene-17β-carboxamide] |  |  | turnover from the enzyme complex (t½) [2]: ~30 days
3 | COc1cc2nc(N3CCN(C(=O)C4CCCO4)CC3)nc(N)c2cc1OC (stereo not drawn) [Terazosin] | greater than 90% | approximately 12 hours | water solubility: more water soluble than prazoin
4 | CC(COc1ccccc1)N(CCCl)Cc1ccccc1 (stereo not drawn) [Phenoxybenzamine] |  |  | half life ([1]; administered intravenously): approximately 24 hours
5 | COc1cc2nc(N(C)CCCNC(=O)C3CCCO3)nc(N)c2cc1OC (stereo not drawn) [Alfuzosin] |  | about 5 hours | 
6 | Cn1c(=O)c2[nH]cnc2n(C)c1=O [theophylline] |  |  | dose excreted unchanged in the urine [3]: about 10%
